Assay results as given in paper PMC9159100, “Intramitochondrial co-assembly between ATP and nucleopeptides induces cancer cell apoptosis” (Chemical Science, 2022).
Square brackets hold non-standard residues; d marks the D form. Peptide text beside a SMILES is read from it. * marks the point of attachment. Acetyl(thymin-1-yl) = Cc1cn(CC(=O)*)c(=O)[nH]c1=O; Cha = N[C@@H](CC1CCCCC1)C(=O)O

Columns and labels:
IMR90 cells = type: cell-based
Protocol: page 16: S7. Cell culture and MTT assay Cell culture: HeLa and IMR90 cells were purchased from American-type Culture Collection (ATCC, USA). Hela and IMR90 were cultured in Dulbecco’s Modified Eagle’s medium (DMEM) supplemented with 10% v fetal bovine serum (FBS), 100 U/mL penicillin and 100 μg/mL streptomycin. All cells were cultured at 37 °C in a […] For MTT assay, cells were seeded in a 96-well plate with the density of 5*103 cells per-well. After 24 hours seeding, the solutions of samples with a serial of concentr ations (5 concentrations and control) were added to each well. 10 μL MTT solution (5 mg/mL) was added to each well and incubated at 37°C for 2 days incubation and incubated for another 4 h, and then 100 μL of SDS-HCl solution was added to stop the reductio n reaction and dissolve the purple formazan. The absorbance of each well at 595 nm was measured by a multimode microplate reader. The cytotoxicity assay was performed three times and the average value of the three measurements was taken. ATP depletion method: Cells were pre -incubated with 10 mM sodium azide ( NaN3), 6 mM 2DG(2-deoxy-glucose) […] After 40 minutes, cells were washed with PBS and free medium. MNP/ADP complex was treated to ATP depleted HeLa cells for 48 hours to assess cytotoxicity.

[1] = Turbidity / appearance of aqueous solution (photograph, transmittance at 280 nm); type: physicochemical; conditions: 200 μM in aqueous solution, ATP added
Protocol: First, we investigated the self-assembly ability and interaction between MNP and ADP or ATP. […] As can be evinced from Fig. 1b and c, the formed nanostructure consisted of approximately 500 nm-sized micellar structures according to transmission electron microscopy (TEM) and scanning electron microscopy (SEM). This is further confirmed by the turbidity of the solution which was determined by transmittance using UV-Vis spectroscopy. […] Transmission electron (TEM) microscopy images of (a) MNP/ADP complex (scale bar: 100 nm) and (b) MNP/ATP complex at 200 μM concentration in aqueous solution (scale bar: 500 nm); (c) scanning electron microscopy image of the MNP/ATP complex at 200 μM concentration in aqueous solution (scale bar: 500 nm); (d) sample turbidity measured by transmittance at 280 nm (inset: photograph) of the MNP, MNP/ADP complex and MNP/ATP complex at 200 μM concentration in aqueous solution; (e) confocal images of the MNP-NBD/ATP complex (Scale bar: 1 μm); (f) photograph of the aqueous solutions of the control molecules (AcNP and MNP2) and MNP in a complex with ATP (concentration: 200 μM). […] S3. ^† Micellar structures characterized by green fluorescence (Fig. 1e) were observed by confocal laser scanning microscopy performed on the MNP-NBD/ATP complex at 200 μM concentration in aqueous solution. […]

SMILES	toxicity toward IMR90 cells above 25 μM (IMR90 cells)	toxicity toward IMR90 cells at 25 μM (IMR90 cells)	appearance of solution in the presence of ATP [1]
CC(=O)N[C@H](CCCNC(=N)N)C(=O)N[C@H](CCCNC(=N)N)C(=O)N[C@@H](CC1CCCCC1)C(=O)N[C@H](CCCNC(=N)N)C(=O)N[C@@H](CC1CCCCC1)C(=O)N[C@H](CCCNC(=N)N)C(=O)N[C@@H](CC1CCCCC1)C(=O)N[C@@H](Cc1ccccc1)C(=O)N[C@@H](Cc1ccccc1)C(=O)O [AcNP, Ac–rrFxrFxrFxFF] (Ac-[dR][dR][Cha][dR][Cha][dR][Cha]FF-OH)	less toxicity	almost no toxicity	
Cc1cn(CC(=O)N[C@H](CCCNC(=N)N)C(=O)N[C@H](CCCNC(=N)N)C(=O)N[C@@H](CC2CCCCC2)C(=O)N[C@H](CCCNC(=N)N)C(=O)N[C@@H](CC2CCCCC2)C(=O)N[C@H](CCCNC(=N)N)C(=O)N[C@@H](CC2CCCCC2)C(=O)O)c(=O)[nH]c1=O [MNP2, Thy–rrFxrFxrFx] ({Acetyl(thymin-1-yl)}-[dR][dR][Cha][dR][Cha][dR][Cha]-OH)			did not become cloudy
